Here are results for three molecules from US11903386B2, “Strigolactone analogs and their usage in plant control” (King Abdullah University of Science and Technology, priority 2016, dated 2024).

What is called IC50 is the concentration that inhibits the measured activity by half. Usually Kd stands for the free concentration of one partner at which half of the binding sites on the other are occupied at equilibrium, for simple one-to-one binding.

In one assay the test system is parasite seed. The settings on record: in vivo; cited from earlier work.
The next assay has as its system rice leaf segments. The assay can be described thus: Dark-induced leaf senescence of rice leaf segments. The class given is in vivo, O. sativa, var. Shiokari. Here is the method:
One week old rice (O. sativa, var. Shiokari) seedlings were established as mentioned above. Uniform seedlings were transferred to 50 ml tubes containing half strength Hoaglands nutrient solution for 7 days and grown in an incubator under white fluorescent light (130-180 μM m^−2 s^−1) with 16 h:8 h (L/D) at 28° C. for one week. Leaf segments of 2 cm were cut from middle part of third leaves of rice plants. Each segment was put in a well (in 24-well plates) containing 2 ml of 2.5 mM MES buffer with 0.05% Tween-20, and incubated at 30° C. in the dark for 7 days. After application of MPs, color change, chlorophyll content, ion leakage and gene expression were monitored daily for 7 days.

The next assay addresses T1, OsD14 (Oryza sativa subsp. japonica, UniProt Q10QA5).
T1 construct: made in house; host or cells: E. coli BL21 (DE3)
T1 sequence (Q10QA5 1-318): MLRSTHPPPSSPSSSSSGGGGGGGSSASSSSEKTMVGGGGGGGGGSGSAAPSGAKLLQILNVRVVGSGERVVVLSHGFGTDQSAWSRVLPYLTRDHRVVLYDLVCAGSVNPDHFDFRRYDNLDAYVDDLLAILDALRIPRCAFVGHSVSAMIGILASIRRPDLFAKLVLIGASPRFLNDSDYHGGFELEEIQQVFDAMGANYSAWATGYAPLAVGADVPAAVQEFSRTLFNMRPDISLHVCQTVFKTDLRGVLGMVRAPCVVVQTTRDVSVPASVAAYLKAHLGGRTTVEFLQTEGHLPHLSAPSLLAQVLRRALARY
In words: YLG (Yoshimulactone Green) competitive hydrolysis assay. The settings on record: with SE (n=3); read-out: IC50, competitive inhibition of OsD14 mediated YLG hydrolysis. The assay is classed as biochemical, rice. An excerpt: (§1) Striga hermonthica ShHTL7 cDNA, GenBank accession KR013127 was kindly provided by Prof. Tadao Asami (The University of Tokyo, Japan). Arabidopsis thaliana D14 (AtD14) cDNA, GenBank accession AY097402 was synthesized and cloned into pUC57 (GenScript). ShHTL7 and OsD14 cDNAs were amplified by RT-PCR using the primers shown in Table 2, digested with BamHI and XhoI, and ligated into BamHI/XhoI digested pGEX-6P-1 expression vector (GE Healthcare). Integrity of plasmids was confirmed by sequencing (KAUST Bioscience Core Lab). The plasmids were then transformed into E. coli BL21 (DE3) cells. The cells were grown in LB broth containing ampicillin ([…]), incubated at 37° C. until OD600 of 0.6 and induced with 0.1 mM isopropyl-β-D-thiogalactopyranoside (IPTG) at 16° C. for 16 h. Harvested cells were re-suspended in lysis buffer: 50 mM Tris-HCl (pH 8.0), 200 mM NaCl, 0.5% Tween-20 and 2 mM dithiothreitol (DTT). After sonication on ice for 10 mins, the lysate was centrifuged at 25,000 rpm for 30 min at 4° C. Supernatant was allowed to bind to glutathione-sepharose beads (GE Healthcare) for 2 h at 4° C., washed 3 times with buffer (50 mM Tris-HCl (pH 8.0), 200 mM NaCl, 2 mM DTT), and eluted by cleaving GST moiety with PreScission™ Protease (GE Healthcare) at 4° C. overnight. Eluted protein was further purified by gel filtration using HiLoad 16/60 Superdex200 prep grade column (GE Healthcare) on an AKTA prime system (GE Healthcare) in gel filtration buffer (10 mM HEPES pH 7.5, 50 mM KCl and 2 mM DTT). Protein eluted as a sharp single peak and purity was judged by 4-15% SDS-PAGE (Bio-Rad). Purified protein was concentrated using an Amicon 10K filter unit (Merck Millipore) and stored at −80° C. until use. Similar expression and purification protocol was followed for OsD14 protein, except that OsD14 was eluted from Glutathione resins using 0.2 mM reduced Glutathione (Sigma) without cutting GST tag.
In vitro YLG hydrolysis assays were performed as described by Tsuchiya et al., 2015. Hydrolysis assays were carried out using 0.15 μM of recombinant protein OsD14 in a reaction buffer (100 mM PBS buffer, pH 7.3) with 0.1% dimethylsulfoxide (DMSO) at a 300 μl volume on a 96-well black plate (Thermo). For competitive assays, (±) GR24 and (±) MPs at range between 0.03 to 10 μM (or 100 μM) were co-incubated with 0.3 μM of YLG and reacted at 30° C. incubator for 15 min. Fluorescent intensity was measured with excitation at 485 nm and detected at 535 nm. IC50 values were calculated online (http://www.ic50.tk/index.html). Later, values were converted to the existing conditions when treated by 1.0 μM of recombinant proteins.

For assay [1], the target named is T2, ShHTL7 (Striga hermonthica, UniProt A0A0M3PNA2).
T2 sequence (A0A0M3PNA2 1-271): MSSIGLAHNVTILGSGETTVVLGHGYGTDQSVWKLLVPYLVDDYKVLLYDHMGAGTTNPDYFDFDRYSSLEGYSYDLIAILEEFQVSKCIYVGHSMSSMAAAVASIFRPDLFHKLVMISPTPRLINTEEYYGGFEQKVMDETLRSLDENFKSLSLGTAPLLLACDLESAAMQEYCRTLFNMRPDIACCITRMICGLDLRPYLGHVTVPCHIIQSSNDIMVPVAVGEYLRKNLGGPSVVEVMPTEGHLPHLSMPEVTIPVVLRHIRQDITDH
In words: In vitro hydrolysis assay with ShHTL7 (HPLC). The class given is biochemical. The settings on record: 10 μM substrate, 37° C.

The subject of another assay is rice d10 mutant. The assay can be described thus: Rice micro tillering bioassay, d10 mutant. The assay is classed as in vivo. The following applies: 2.5 μM, hydroponic culture; untreated (Mock) 4 tillers per plant. Here is the method:
(§2) Rice seeds (WT, d3, d10) were surface-sterilized by washing with 70% ethanol for 1 min and then with 2.5% sodium hypochlorite for 15 min. Seeds were then rinsed thoroughly with sterile MilliQ water and incubated in water for 2 days at 30° C. in the dark. Pre-germinated seeds were transferred to filter papers containing ½ strength MS medium in 90 mm petri dishes and incubated at 30° C. under fluorescent white light (130-180 μM m^−2 s^−1) for one week. Seven day-old seedlings were transferred to 50 ml falcon tubes (one seedling per tube) containing modified half-strength Hoagland nutrient solution and grown in greenhouse. Plants were treated with MPs at 2.5 μM-2.5×10-7 μM, using GR24 as positive control. The compounds were applied six times, twice a week. Number of tillers per plant, plant height and fresh biomass were measured at final harvest.
Statistical analyses were carried out using statistical software package R (version 3.2.2). Dose-response curves and Half Maximum Effective Concentrations (EC50) were calculated to determine optimum amount of MPs. Synthetic strigolactone analog GR24 was used as reference to estimate efficacy of selected compounds. EC50 and estimated response were calculated using drc package (https://cran.r390 project.org/web/packages/drc/) with a Four Parameter Logistic Curve (Dose Response Curve) (Ritz and Streibig, 2005).

The next assay has as its system rice d3 mutant. In words: Rice micro tillering bioassay, SL insensitive d3 mutant. The class given is in vivo. The following applies: 2.5 μM, hydroponic culture. Here is the method: as §2
For assay [2], the target named is T2, ShHTL7. The assay can be described thus: Intrinsic tryptophan fluorescence assay. The class given is binding. The settings on record: ShHTL7 10 μM, mean±SE (n=3); read-out: Kd, affinity of ShHTL7.
Text: as §1
ShHTL7 tryptophans were excited at 280 nm and […] emission intensity was measured at 333 nm. ShHTL7 (10 μM) was incubated at various dilutions (0.2, 0.4, 0.8, 1.6, 3.12, 6.25, 12.5, 25 and 50 μM) of GR24 and MPs for 30 minutes at room temperature before measurement. Each concentration point was measured in triplicates. Emitted fluorescence was monitored using spectraMaxi3 (Molecular Devices) plate reader in 96-wells black plates. Changes in tryptophan fluorescence intensity occur due to conformational changes in protein when it is bound to ligand; differences in fluorescence intensity were recorded and analyzed. Data were normalized and dissociation coefficient (Kd) values were calculated by fitting to a binding saturation single-site model with GraphPad (PRISM 6).

The test system of a further assay is S. hermonthica. The following applies: in vivo; cited from earlier work.
The subject of the next assay is P. ramosa. The following applies: in vivo; cited from earlier work.
In a further assay the test system is Orobanche ramosa. The following applies: tobacco field; cited from earlier work.

On to `CC1=CC(Oc2ccc(Br)cc2)OC1=O` (stereo not shown) [4-Br debranone], for which the “Activity in inducing parasite seed germination” value in the assay with parasite seed is reported as “moderate activity in inducing seed germination”.

On to `CC1=C[C@H](O/C=C2/C(=O)O[C@@H]3c4ccccc4C[C@H]23)OC1=O` [GR24, reference compound], for which the “Transcript levels of Senescence Associated Genes Osl20 and Osl295” value in the assay on rice leaf segments (after 5 days of treatment) is listed as “striking increase in their transcripts”. In addition, the “Change in leaf color, time relative to control” value in the assay with rice leaf segments (dark, leaf segments) was “about two days earlier than the control”. Also, the “Change in leaf color, day observed” value with rice leaf segments (dark, leaf segments monitored 7 days) is given as “already on the third day after treatment”. The “Ion leakage compared to the control” value in the assay with rice leaf segments (first five days) is given as “did not detect a difference”; in the assay with rice leaf segments (sixth and seventh day) it was “striking increase”. In addition, the Chlorophyll content entry in the assay on rice leaf segments (third day) was “clear reduction”. For the same molecule, at OsD14, the IC50 came out at 5.68 ± 0.183 µM. Also, the “Hydrolysis rate by ShHTL7” value on ShHTL7 [1] is given as “followed by MP7, GR24”. For the same molecule, the “Number of tillers per plant, d10 mutant” value with rice d10 mutant is 1 tiller per plant. For the same molecule, the “High-tillering phenotype of d3 mutant (tillers per plant)” value in the assay on rice d3 mutant was “neither MPs nor GR24 could restore the high-tillering phenotype”. Further, the Kd at ShHTL7 [2] is 0.44 ± 0.21 µM.

For `COC(=O)/C(=C/O[C@H]1C=C(C)C(=O)O1)N1C(=O)c2ccccc2C1=O` [Nijmegen-1], in the assay on S. hermonthica, the “Activity in S. hermonthica seed germination” value is “weak germination response” and the “EC50 relative to GR24, orders of magnitude higher” value is listed as 3 orders of magnitude. Besides, the “Induction of seed germination in P. ramosa” value in the assay with P. ramosa is listed as “potent inducer”. Further, the “Result of suicidal germination field trial” value with Orobanche ramosa is reported as “very promising results”.
